Data taken from article PMC8445441, “Elucidating the mechanism by which synthetic helper peptides sensitize Pseudomonas aeruginosa to multiple antibiotics” (PLoS Pathogens, 2021).
Like-named read-outs stand apart in the source and are kept apart here. Each block holds one molecule with its values, some of them ahead of it.

Key:
[1] = test system: clinical P. aeruginosa isolates; test: microbe, parasite or virus in culture; details: Pseudomonas aeruginosa, 18 h, antibiotic alone
Summary of the method: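 Broth microdilution per CLSI in MHB, two-fold drug dilutions mixed with an equal volume of bacteria at about 1 × 10^6 CFU/mL. After 18 h at 37 °C, MIC taken as the lowest concentration with no visible growth; run in triplicate.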

[2] = test system: P. aeruginosa AUMC-Pa-1; details: strain AUMC-Pa-1; antibiotic + D-11 (MICb/MICbc 128/4)
Summary of the method: (§1)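 Broth microdilution per CLSI in MHB: two-fold drug dilutions mixed with an equal volume of bacterial suspension at approximately 1 × 10^6 CFU/mL, incubated 18 h at 37 °C. MIC was the lowest concentration with no visible growth; triplicate runs.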

[3] = test system: P. aeruginosa AUMC-Pa-2; details: strain AUMC-Pa-2; antibiotic + D-11 (MICb/MICbc 64/4)
Summary of the method: as §1

[4] = test system: P. aeruginosa AUMC-Pa-4; test: microbe, parasite or virus in culture; details: for FICI: antibiotic + D-11 (MICb/MICbc 128/4); for MICac: MIC of the antibiotic in the combination: with D-11 at MICbc 4
Summary of the method: as §1

[5] = test system: P. aeruginosa AUMC-Pa-6; test: microbe, parasite or virus in culture; details: for FICI: antibiotic + D-11 (MICb/MICbc 64/4); for MICac: MIC of the antibiotic in the combination: with D-11 at MICbc 4
Summary of the method: as §1

[6] = test system: P. aeruginosa AUMC-Pa-3; test: microbe, parasite or virus in culture; details: for MIC: Pseudomonas aeruginosa, AUMCPA3, 18 h, read-out: MICa: MIC of the antibiotic; for FICI / MICac: MIC of the antibiotic in the combination: strain AUMC-Pa-3; for FICI: antibiotic + D-11 (MICb/MICbc 128/4); for MICac: MIC of the antibiotic in the combination: with D-11 at MICbc 4, unit not given
Summary of the method: as §1

[7] = test system: P. aeruginosa AUMC-Pa-5; test: microbe, parasite or virus in culture; details: for FICI: antibiotic + D-11 (MICb/MICbc 64/4); for MICac: MIC of the antibiotic in the combination: with D-11 at MICbc 4
Summary of the method: as §1

[8] = test system: P. aeruginosa PAO1; test: microbe, parasite or virus in culture; details: PAO1; for MIC: Pseudomonas aeruginosa, PAO1, 18 h, read-out: MICa: the MIC of antibiotics, S3 Table
Summary of the method: as §1

[9] = test system: P. aeruginosa HM-214; details: strain HM-214; antibiotic + D-11 (MICb/MICbc 128/4)
Summary of the method: as §1

[10] = test system: P. aeruginosa PA14; test: microbe, parasite or virus in culture; set-up: MICa: MIC of the antibiotic / MICac: MIC of the antibiotic in the combination: unit not given beside the values; details: for FICI: antibiotic + D-11 (MICb/MICbc 128/4); for MICac: MIC of the antibiotic in the combination: with D-11 at MICbc 4
Summary of the method: as §1

[11] = test system: P. aeruginosa ATCC27853; test: microbe, parasite or virus in culture; set-up: MICa: MIC of the antibiotic / MICac: MIC of the antibiotic in the combination: unit not given beside the values; details: for FICI: antibiotic + D-11 (MICb/MICbc 32/4); for MICac: MIC of the antibiotic in the combination: with D-11 at MICbc 4
Summary of the method: as §1

[12] = test system: P. aeruginosa NR-31041; test: microbe, parasite or virus in culture; set-up: MICa: MIC of the antibiotic / MICac: MIC of the antibiotic in the combination: unit not given beside the values; details: for MIC: Pseudomonas aeruginosa, NR31041, 18 h, read-out: MICa: MIC of the antibiotic; for FICI / MICac: MIC of the antibiotic in the combination: strain NR-31041; for FICI: antibiotic + D-11 (MICb/MICbc 64/4); for MICac: MIC of the antibiotic in the combination: with D-11 at MICbc 4, unit not given
Summary of the method: as §1

[13] = test system: P. aeruginosa NR-31040; test: microbe, parasite or virus in culture; set-up: MICa: MIC of the antibiotic / MICac: MIC of the antibiotic in the combination: unit not given beside the values; details: for FICI: antibiotic + D-11 (MICb/MICbc 128/4); for MICac: MIC of the antibiotic in the combination: with D-11 at MICbc 4
Summary of the method: as §1

[14] = test system: P. aeruginosa PAK; test: microbe, parasite or virus in culture; set-up: MICa: MIC of the antibiotic / MICac: MIC of the antibiotic in the combination: unit not given beside the values; details: for MIC: Pseudomonas aeruginosa, 18 h, read-out: MICa: MIC of the antibiotic; for FICI / MICac: MIC of the antibiotic in the combination: strain PAK; for FICI: antibiotic + D-11 (MICb/MICbc 64/4); for MICac: MIC of the antibiotic in the combination: with D-11 at MICbc 4, unit not given
Summary of the method: as §1

[15] = read-out: Antibiotic sensibility (MIC) of clinical P. aeruginosa isolate AUMC-Pa-1, strain AUMC-Pa-1
[16] = read-out: Antibiotic sensibility (MIC) of clinical P. aeruginosa isolate AUMC-Pa-2, strain AUMC-Pa-2
[17] = read-out: Antibiotic sensibility (MIC) of clinical P. aeruginosa isolate AUMC-Pa-3, strain AUMC-Pa-3
[18] = read-out: Antibiotic sensibility (MIC) of clinical P. aeruginosa isolate AUMC-Pa-4, strain AUMC-Pa-4
[19] = read-out: Antibiotic sensibility (MIC) of clinical P. aeruginosa isolate AUMC-Pa-5, strain AUMC-Pa-5
[20] = read-out: Antibiotic sensibility (MIC) of clinical P. aeruginosa isolate AUMC-Pa-6, strain AUMC-Pa-6
[21] = read-out: Antibiotic sensibility (MIC) of clinical P. aeruginosa isolate HM-214, strain HM-214
[22] = read-out: Antibiotic sensibility (MIC) of clinical P. aeruginosa isolate NR-31040, strain NR-31040
[23] = read-out: Antibiotic sensibility (MIC) of clinical P. aeruginosa isolate NR-31041, strain NR-31041
[24] = strain AUMC-Pa-4, unit not given
[25] = strain AUMC-Pa-6, unit not given
[26] = strain AUMC-Pa-5, unit not given
[27] = S3 Table, antibiotic + 2 μM D-11
[28] = S3 Table, antibiotic + 4 μM D-11
[29] = strain ATCC27853, unit not given
[30] = strain NR-31040, unit not given

MIC [1, 15]: 32 µM
MIC [1, 16]: 8 µM
MIC [1, 17]: 16 µM
MIC [1, 18]: 16 µM
MIC [1, 19]: 32 µM
MIC [1, 20]: 16 µM
MIC [1, 21]: 32 µM
MIC [1, 22]: 32 µM
MIC [1, 23]: 32 µM
MICa: MIC of the antibiotic ([4]; strain AUMC-Pa-4, antibiotic alone, unit not given): 16
MICac: MIC of the antibiotic in the combination [4, 24]: 1
MICa: MIC of the antibiotic ([5]; strain AUMC-Pa-6, antibiotic alone, unit not given): 16
MICac: MIC of the antibiotic in the combination [5, 25]: 4
MIC [6]: 16 µM
MICac: MIC of the antibiotic in the combination [6]: 0.063
MICa: MIC of the antibiotic ([7]; strain AUMC-Pa-5, antibiotic alone, unit not given): 32
MICac: MIC of the antibiotic in the combination [7, 26]: 8
MIC ([8]; antibiotic alone): 32 µM
MICac: the MIC for the antibiotic in the combination ([8]; S3 Table, with 2 μM D-11): 0.0625 µM
MICac: the MIC for the antibiotic in the combination ([8]; S3 Table, with 4 μM D-11): 0.03125 µM
MICa: the MIC of antibiotics ([8]; S3 Table, antibiotic alone): 32 µM
MIC ([10]; Pseudomonas aeruginosa, PA14, 18 h, read-out: MICa: MIC of the antibiotic): > 128 µM
MICac: MIC of the antibiotic in the combination ([10]; strain PA14, unit not given): 2
MIC ([11]; Pseudomonas aeruginosa, ATCC27853, 18 h, read-out: MICa: MIC of the antibiotic): 16 µM
MICac: MIC of the antibiotic in the combination [11, 29]: 0.25
MIC [12]: 32 µM
MICac: MIC of the antibiotic in the combination [12]: 0.25
MICa: MIC of the antibiotic ([13]; strain NR-31040, antibiotic alone, unit not given): 32
MICac: MIC of the antibiotic in the combination [13, 30]: 2
MIC [14]: 16 µM
MICac: MIC of the antibiotic in the combination [14]: 0.25
SMILES: CO[C@H]1/C=C/O[C@@]2(C)Oc3c(C)c(O)c4c(c3C2=O)C2=NC3(CCN(CC(C)C)CC3)NC2=C(NC(=O)/C(C)=C\C=C\[C@H](C)[C@H](O)[C@@H](C)[C@@H](O)[C@@H](C)[C@H](OC(C)=O)[C@@H]1C)C4=O [Rifabutin]
FICI [2]: 0.039
FICI [3]: 0.070
FICI ([4]; strain AUMC-Pa-4): 0.094
FICI ([5]; strain AUMC-Pa-6): 0.313
FICI [6]: 0.035
FICI ([7]; strain AUMC-Pa-5): 0.313
FICI [8, 27]: 0.064
FICI [8, 28]: 0.126
FICI [9]: 0.039
FICI ([10]; strain PA14): 0.039
FICI ([11]; strain ATCC27853): 0.133
FICI [12]: 0.070
FICI ([13]; strain NR-31040): 0.094
FICI [14]: 0.078

MIC [1, 15]: > 128 µM
MIC [1, 16]: 128 µM
MIC [1, 17]: > 128 µM
MIC [1, 18]: > 128 µM
MIC [1, 19]: > 128 µM
MIC [1, 20]: > 128 µM
MIC [1, 21]: > 128 µM
MIC [1, 22]: > 128 µM
MIC [1, 23]: > 128 µM
MIC ([4]; Pseudomonas aeruginosa, AUMCPA4, 18 h, read-out: MICa: MIC of the antibiotic): > 128 µM
MICac: MIC of the antibiotic in the combination [4, 24]: >128/>128
MIC ([5]; Pseudomonas aeruginosa, AUMCPA6, 18 h, read-out: MICa: MIC of the antibiotic): > 128 µM
MICac: MIC of the antibiotic in the combination [5, 25]: >128/>128
MIC [6]: > 128 µM
MICac: MIC of the antibiotic in the combination [6]: 32
MIC ([7]; Pseudomonas aeruginosa, AUMCPA5, 18 h, read-out: MICa: MIC of the antibiotic): > 128 µM
MICac: MIC of the antibiotic in the combination [7, 26]: >128/128
MIC ([8]; antibiotic alone): > 128 µM
MICa: MIC of the antibiotic ([10]; strain PA14, antibiotic alone, unit not given): 128
MICac: MIC of the antibiotic in the combination ([10]; strain PA14, unit not given): 32
MICa: MIC of the antibiotic ([11]; strain ATCC27853, antibiotic alone, unit not given): 128
MICac: MIC of the antibiotic in the combination [11, 29]: 8
MIC [12]: > 128 µM
MICac: MIC of the antibiotic in the combination [12]: >128/128
MIC ([13]; Pseudomonas aeruginosa, NR31040, 18 h, read-out: MICa: MIC of the antibiotic): > 128 µM
MICac: MIC of the antibiotic in the combination [13, 30]: >128/128
MIC [14]: > 128 µM
MICac: MIC of the antibiotic in the combination [14]: 64
SMILES: C[C@@H]1O[C@@H]1P(=O)(O)O [Fosfomycin]
FICI [2]: 0.281
FICI [3]: 0.188
FICI ([4]; strain AUMC-Pa-4): 1.031
FICI ([5]; strain AUMC-Pa-6): 1.063
FICI [6]: 0.156
FICI ([7]; strain AUMC-Pa-5): 0.563
FICI [8, 27]: 0.188
FICI [8, 28]: 0.188
FICI [9]: 0.281
FICI ([10]; strain PA14): 0.281
FICI ([11]; strain ATCC27853): 0.188
FICI [12]: 0.563
FICI ([13]; strain NR-31040): 0.531
FICI [14]: 0.313
